We go through 20 compounds from PubChem BioAssay AID248 (DTP/NCI, 2004).

The structures appear in SMILES notation. Several values for one entry are separate records, joined by “and”; a condition that tells them apart may be missing. Equal values may be shown once. Inconclusive results and toxic doses are left out.

This assay has as its system L1210 leukemia ip in BDF1 mice, survival T/C. Briefly: NCI In Vivo Anticancer Drug Screen. Data for tumor model L1210 Leukemia (intraperitoneal) in B6D2F1 (BDF1) mice. Particulars: endpoint: mean survival time, higher = longer survival. The method, boiled down:
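Tumor cells were implanted, animals were treated, and survival was followed. The result divides the treated measurement by the vehicle-control measurement.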

Where [1] appears, read: dose: 100.0 mg/kg/injection, schedule: Q01DX001 (ip), vehicle: other.
The mark [2] stands for this setting: dose: 100.0 mg/kg/injection, schedule: Q04DX003 (ip), vehicle: saline.
Where [3] appears, read: dose: 200.0 mg/kg/injection, schedule: Q01DX001 (ip), vehicle: other.
The mark [4] stands for this setting: dose: 200.0 mg/kg/injection, schedule: Q04DX003 (ip), vehicle: saline.
The mark [5] stands for this setting: dose: 400.0 mg/kg/injection, schedule: Q01DX001 (ip), vehicle: other.
[6] abbreviates: dose: 400.0 mg/kg/injection, schedule: Q04DX003 (ip), vehicle: saline.
[7] abbreviates: dose: 100.0 mg/kg/injection, schedule: Q01DX009 (ip), vehicle: Klucel (hydroxypropylcellulose) (HPC).
[8] abbreviates: dose: 200.0 mg/kg/injection, schedule: Q01DX009 (ip), vehicle: Klucel (hydroxypropylcellulose) (HPC).
[9] abbreviates: dose: 100.0 mg/kg/injection, schedule: Q01DX009 (ip), vehicle: gum acacia.
Setting [10] is: dose: 200.0 mg/kg/injection, schedule: Q01DX009 (ip), vehicle: gum acacia.
Where [11] appears, read: dose: 400.0 mg/kg/injection, schedule: Q01DX009 (ip), vehicle: gum acacia.
[12] abbreviates: dose: 100.0 mg/kg/injection, schedule: Q01DX009 (ip), vehicle: saline with Tween-80.
Setting [13] is: dose: 100.0 mg/kg/injection, schedule: Q04DX003 (ip), vehicle: saline with Tween-80.
[14] abbreviates: dose: 200.0 mg/kg/injection, schedule: Q01DX009 (ip), vehicle: saline with Tween-80.
[15] abbreviates: dose: 200.0 mg/kg/injection, schedule: Q04DX003 (ip), vehicle: saline with Tween-80.
Setting [16] is: dose: 400.0 mg/kg/injection, schedule: Q01DX009 (ip), vehicle: saline with Tween-80.
[17] abbreviates: dose: 400.0 mg/kg/injection, schedule: Q04DX003 (ip), vehicle: saline with Tween-80.
[18] abbreviates: dose: 50.0 mg/kg/injection, schedule: Q01DX009 (ip), vehicle: saline with Tween-80.

Turning to `CCC(CC)OCCN1CCN(CCCN2c3ccccc3Sc3ccc(C(F)(F)F)cc32)CC1`, the T/C was 107 % of control (dose: 0.39 mg/kg/injection, schedule: Q01DX009 (ip), vehicle: saline with Tween-80); 107 % of control (dose: 0.78 mg/kg/injection, schedule: Q01DX009 (ip), vehicle: saline with Tween-80); 95 % of control (dose: 1.56 mg/kg/injection, schedule: Q01DX009 (ip), vehicle: saline with Tween-80); 97 % of control (dose: 1.56 mg/kg/injection, schedule: Q04DX003 (ip), vehicle: saline with Tween-80); 96 % of control (dose: 3.12 mg/kg/injection, schedule: Q04DX003 (ip), vehicle: saline with Tween-80); 112 % of control (dose: 6.25 mg/kg/injection, schedule: Q04DX003 (ip), vehicle: saline with Tween-80). Besides, the T/C (dose: 12.5 mg/kg/injection, schedule: Q04DX003 (ip), vehicle: saline with Tween-80) is 97 % of control.
As for `OC(CNc1ccccc1)CN1CCOCC1` (stereo not given), the T/C reads like this: under setting [1], 101 % of control; under setting [2], 100 % of control; under setting [3], 96 % of control; under setting [4], 94 % of control; under setting [5], 105 % of control; under setting [6], 94 % of control.
Consider `Cc1ccc(OCC(=O)O)c(Cl)c1`, for which the T/C under setting [7] was 104 % of control and the T/C under setting [8] was 94 % of control.
`CC(=O)Nc1ccc(/C=N\NC(=O)c2ccco2)cc1`: the T/C reads like this: under setting [1], 87 % of control; under setting [3], 90 % of control; under setting [5], 87 % of control.
For the compound `OC(CCN1CCOCC1)c1cc2ccccc2o1` (stereo not given), the T/C (dose: 75.0 mg/kg/injection, schedule: Q04DX003 (ip), vehicle: saline with Tween-80) is 102 % of control and the T/C (dose: 150.0 mg/kg/injection, schedule: Q04DX003 (ip), vehicle: saline with Tween-80) was 100 % of control.
As to `C=C[C@@](C)(O)CC/C=C(/C)CCC=C(C)C`, the T/C is 112 % of control (dose: 6.0 mg/kg/injection, schedule: Q01DX009 (ip), vehicle: saline); 100 % of control (dose: 12.0 mg/kg/injection, schedule: Q01DX009 (ip), vehicle: saline); 101 % of control (dose: 25.0 mg/kg/injection, schedule: Q01DX009 (ip), vehicle: saline); 106 % of control (dose: 50.0 mg/kg/injection, schedule: Q01DX009 (ip), vehicle: saline); 97 % of control under setting [2]; 96 % of control under setting [4]. Under setting [6], the T/C is 102 % of control.
For `N#Cc1cnc(SCc2ccccc2)nc1N`, the T/C is 95 % of control (dose: 100.0 mg/kg/injection, schedule: Q01DX001 (ip), vehicle: gum acacia); 95 % of control under setting [9]; 95 % of control (dose: 200.0 mg/kg/injection, schedule: Q01DX001 (ip), vehicle: gum acacia); 98 % of control under setting [10]; 98 % of control (dose: 400.0 mg/kg/injection, schedule: Q01DX001 (ip), vehicle: gum acacia); 107 % of control under setting [11].
As to `O=C1CCN(Cc2ccccc2)C(=S)N1`, the T/C (dose: 100.0 mg/kg/injection, schedule: Q01DX Z (ip), vehicle: methylcellulose (MC)) is 93 % of control.
With `Oc1ccc2c(ccc3ccc4ccccc4c32)c1`, the T/C is, setting by setting: (dose: 100.0 mg/kg/injection, schedule: Q01DX001 (ip), vehicle: alcohol) 103 % of control; (dose: 200.0 mg/kg/injection, schedule: Q01DX001 (ip), vehicle: alcohol) 100 % of control; (dose: 400.0 mg/kg/injection, schedule: Q01DX001 (ip), vehicle: alcohol) 95 % of control.
Turning to `Cc1cnc2c(N)nn(-c3ccccc3)c2n1`, the T/C reads like this: under setting [12], 93 % of control; under setting [13], 95 % of control; under setting [14], 101 % of control; under setting [15], 97 % of control; under setting [16], 98 % of control; under setting [17], 94 % of control.
In the case of `CO/C=C1\Cc2cc(OC)c(OC)cc2C1=O`, the T/C runs as follows: under setting [12], 102 % of control; under setting [14], 104 % of control; under setting [16], 94 % of control.
For the compound `COc1cccc(NC(=O)Nc2ccccc2Cl)c1`, the T/C by setting is: under setting [9], 93 % of control; (dose: 100.0 mg/kg/injection, schedule: Q04DX003 (ip), vehicle: gum acacia) 92 % of control; under setting [10], 98 % of control; (dose: 200.0 mg/kg/injection, schedule: Q04DX003 (ip), vehicle: gum acacia) 90 % of control; under setting [11], 96 % of control; (dose: 400.0 mg/kg/injection, schedule: Q04DX003 (ip), vehicle: gum acacia) 94 % of control.
For the compound `CC(CCN1CCOCC1)(CNC1=NCCN1)c1cccc2ccccc12` (stereo not given), the T/C by setting is: (dose: 5.0 mg/kg/injection, schedule: Q01DX009 (ip), vehicle: saline with Tween-80) 100 % of control; (dose: 10.0 mg/kg/injection, schedule: Q01DX009 (ip), vehicle: saline with Tween-80) 96 % of control; (dose: 20.0 mg/kg/injection, schedule: Q01DX009 (ip), vehicle: saline with Tween-80) 103 % of control.
In the case of `CC(C)=NNC(=O)NO`, where the note is “dose: 75.0 mg/kg/injection, schedule: Q01DX001 (ip), vehicle: saline”, the T/C is 102 % of control.
Take `CCC(=O)Nc1ccccc1C`: the T/C is 92 % of control (dose: 100.0 mg/kg/injection, schedule: Q04DX002 (ip), vehicle: Klucel (hydroxypropylcellulose) (HPC)); 103 % of control (dose: 200.0 mg/kg/injection, schedule: Q04DX002 (ip), vehicle: Klucel (hydroxypropylcellulose) (HPC)); 110 % of control (dose: 400.0 mg/kg/injection, schedule: Q04DX002 (ip), vehicle: Klucel (hydroxypropylcellulose) (HPC)).
For the compound `CCOC(=O)NS(=O)(=O)c1ccccc1`, the T/C is, setting by setting: under setting [7], 100 % of control; under setting [8], 101 % of control; (dose: 400.0 mg/kg/injection, schedule: Q01DX009 (ip), vehicle: Klucel (hydroxypropylcellulose) (HPC)) 87 % of control.
`NCCCCC(N)C(=O)O` (stereo not given): the T/C was 115 % of control (dose: 100.0 mg/kg/injection, schedule: Q01DX001 (ip), vehicle: Klucel (hydroxypropylcellulose) (HPC)); 94 % of control (dose: 100.0 mg/kg/injection, schedule: Q01DX001 (ip), vehicle: saline); 100 % of control (dose: 200.0 mg/kg/injection, schedule: Q01DX001 (ip), vehicle: Klucel (hydroxypropylcellulose) (HPC)); 97 % of control (dose: 200.0 mg/kg/injection, schedule: Q01DX001 (ip), vehicle: saline); 86 % of control (dose: 400.0 mg/kg/injection, schedule: Q01DX001 (ip), vehicle: Klucel (hydroxypropylcellulose) (HPC)); 94 % of control (dose: 400.0 mg/kg/injection, schedule: Q01DX001 (ip), vehicle: saline).
For `CCCCP(=O)(CCC)CCCC`, the T/C runs as follows: under setting [13], 99 % of control; under setting [15], 94 % of control; under setting [17], 87 % of control.
Turning to `O=[N+]([O-])c1ccc(C[N+]23CCN(CC2)CC3)cc1`, the T/C under setting [18] is 96 % of control; the T/C (dose: 50.0 mg/kg/injection, schedule: Q04DX003 (ip), vehicle: saline with Tween-80) is 106 % of control; the T/C under setting [12] was 102 % of control; the T/C under setting [13] was 106 % of control; the T/C under setting [15] is 101 % of control.
Regarding `CC12CC[C]([Hg][I])(CC1)C2(C)C`, the T/C (dose: 6.25 mg/kg/injection, schedule: Q01DX009 (ip), vehicle: saline with Tween-80) is 101 % of control and 103 % of control; the T/C (dose: 12.5 mg/kg/injection, schedule: Q01DX009 (ip), vehicle: saline with Tween-80) was 95 % of control and 110 % of control; the T/C (dose: 25.0 mg/kg/injection, schedule: Q01DX009 (ip), vehicle: saline with Tween-80) is 98 % of control and 211 % of control; the T/C under setting [18] is 91 % of control.
